Measurements: the kinase profiling compilation of Christmann-Franck et al. (2016)

How the values were obtained:
Experiment in all cases: radiometric filter-binding kinase assay, Kinase HotSpot
Conditions in all cases: compound 0.5 µM; ATP 10 µM
PRKCE (human) = PRKCE (human) (UniProt Q02156)
CAMKK1 (human) = CAMKK1 (human) (UniProt Q8N5S9)
DAPK2 (human) = DAPK2 (human) (UniProt Q9UIK4)
DSTYK (human) = DSTYK (human) (UniProt Q6XUX3)
PRKD2 (human) = PRKD2 (human) (UniProt Q9BZL6)
DDR2 (human) = DDR2 (human) (UniProt Q16832)
HIPK1 (human) = HIPK1 (human) (UniProt Q86Z02)
CDK5 CDK5R1 p25 (human) = CDK5 CDK5R1 p25 (human) (UniProt Q00535+Q15078)
ITK (human) = ITK (human) (UniProt Q08881)
NTRK1 (human) = NTRK1 (human) (UniProt P04629)
FGFR1 (human) = FGFR1 (human) (UniProt P11362)
PAK3 (human) = PAK3 (human) (UniProt O75914)
FES (human) = FES (human) (UniProt P07332)
CDK2 CCNA2 (human) = CDK2 CCNA2 (human) (UniProt P24941+P20248)
LIMK1 (human) = LIMK1 (human) (UniProt P53667)
JAK2 JH1 JH2 (human) = JAK2 JH1 JH2 (human) (UniProt O60674)
CAMK2B (human) = CAMK2B (human) (UniProt Q13554)
STK11 (human) = STK11 (human) (UniProt Q15831)
PHKG2 (human) = PHKG2 (human) (UniProt P15735)
RPS6KA5 KD2 (human) = RPS6KA5 KD2 (human) (UniProt O75582)
FLT3 (human) = FLT3 (human) (UniProt P36888)
PAK4 (human) = PAK4 (human) (UniProt O96013)
AKT1 (human) = AKT1 (human) (UniProt P31749)
BLK (human) = BLK (human) (UniProt P51451)
[1] = target: TYK2 JH1 catalytic (human) (UniProt P29597)
PDPK1 (human) = PDPK1 (human) (UniProt O15530)
GRK7 (human) = GRK7 (human) (UniProt Q8WTQ7)
MAPKAPK5 (human) = MAPKAPK5 (human) (UniProt Q8IW41)
TEC (human) = TEC (human) (UniProt P42680)
MAP2K1 (human) = MAP2K1 (human) (UniProt Q02750)
TXK (human) = TXK (human) (UniProt P42681)
MAPK3 (human) = MAPK3 (human) (UniProt P27361)
PTK2 (human) = PTK2 (human) (UniProt Q05397)
CSNK1G3 (human) = CSNK1G3 (human) (UniProt Q9Y6M4)
SLK (human) = SLK (human) (UniProt Q9H2G2)
PIM3 (human) = PIM3 (human) (UniProt Q86V86)
PDGFRA (human) = PDGFRA (human) (UniProt P16234)
RPS6KA4 KD2 (human) = RPS6KA4 KD2 (human) (UniProt O75676)
MAPKAPK2 (human) = MAPKAPK2 (human) (UniProt P49137)
MELK (human) = MELK (human) (UniProt Q14680)
JAK3 JH1 JH2 (human) = JAK3 JH1 JH2 (human) (UniProt P52333)
PDGFRB (human) = PDGFRB (human) (UniProt P09619)

Chain of NTRK1 (human) (P04629 whole entry, looked up): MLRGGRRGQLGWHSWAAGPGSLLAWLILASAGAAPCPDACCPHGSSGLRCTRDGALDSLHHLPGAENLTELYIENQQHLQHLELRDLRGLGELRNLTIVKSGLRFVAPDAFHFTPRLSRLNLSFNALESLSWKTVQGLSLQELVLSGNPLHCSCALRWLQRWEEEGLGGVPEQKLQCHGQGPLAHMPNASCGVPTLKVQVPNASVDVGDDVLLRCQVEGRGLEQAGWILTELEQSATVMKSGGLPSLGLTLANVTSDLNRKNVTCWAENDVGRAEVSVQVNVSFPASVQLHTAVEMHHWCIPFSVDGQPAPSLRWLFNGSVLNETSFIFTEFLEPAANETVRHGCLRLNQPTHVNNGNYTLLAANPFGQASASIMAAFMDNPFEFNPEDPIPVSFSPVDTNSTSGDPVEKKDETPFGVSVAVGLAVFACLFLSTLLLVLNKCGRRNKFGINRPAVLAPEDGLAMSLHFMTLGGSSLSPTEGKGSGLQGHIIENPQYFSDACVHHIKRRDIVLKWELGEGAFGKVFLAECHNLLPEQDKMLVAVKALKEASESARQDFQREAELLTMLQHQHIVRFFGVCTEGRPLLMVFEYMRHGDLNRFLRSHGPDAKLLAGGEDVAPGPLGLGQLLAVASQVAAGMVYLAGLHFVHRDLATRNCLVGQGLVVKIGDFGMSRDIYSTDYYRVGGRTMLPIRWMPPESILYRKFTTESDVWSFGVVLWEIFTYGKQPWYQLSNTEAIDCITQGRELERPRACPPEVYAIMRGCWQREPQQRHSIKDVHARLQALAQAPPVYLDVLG
Chain of GRK7 (human) (Q8WTQ7 whole entry, looked up): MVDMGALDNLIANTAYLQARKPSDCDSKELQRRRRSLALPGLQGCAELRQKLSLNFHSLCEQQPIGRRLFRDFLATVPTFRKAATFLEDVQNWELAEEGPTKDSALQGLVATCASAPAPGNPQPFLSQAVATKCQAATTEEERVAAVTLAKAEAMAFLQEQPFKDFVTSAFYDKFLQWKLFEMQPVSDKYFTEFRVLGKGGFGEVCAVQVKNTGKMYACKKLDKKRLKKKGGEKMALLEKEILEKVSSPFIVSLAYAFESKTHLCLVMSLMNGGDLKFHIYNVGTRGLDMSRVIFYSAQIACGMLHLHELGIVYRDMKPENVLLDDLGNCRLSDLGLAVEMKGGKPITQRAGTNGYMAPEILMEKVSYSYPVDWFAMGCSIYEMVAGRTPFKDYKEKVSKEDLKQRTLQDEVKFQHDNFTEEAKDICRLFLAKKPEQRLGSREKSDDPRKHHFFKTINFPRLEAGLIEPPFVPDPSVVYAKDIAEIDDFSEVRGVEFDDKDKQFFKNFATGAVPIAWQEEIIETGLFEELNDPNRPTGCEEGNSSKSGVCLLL
Chain of DSTYK (human) (Q6XUX3 whole entry, looked up): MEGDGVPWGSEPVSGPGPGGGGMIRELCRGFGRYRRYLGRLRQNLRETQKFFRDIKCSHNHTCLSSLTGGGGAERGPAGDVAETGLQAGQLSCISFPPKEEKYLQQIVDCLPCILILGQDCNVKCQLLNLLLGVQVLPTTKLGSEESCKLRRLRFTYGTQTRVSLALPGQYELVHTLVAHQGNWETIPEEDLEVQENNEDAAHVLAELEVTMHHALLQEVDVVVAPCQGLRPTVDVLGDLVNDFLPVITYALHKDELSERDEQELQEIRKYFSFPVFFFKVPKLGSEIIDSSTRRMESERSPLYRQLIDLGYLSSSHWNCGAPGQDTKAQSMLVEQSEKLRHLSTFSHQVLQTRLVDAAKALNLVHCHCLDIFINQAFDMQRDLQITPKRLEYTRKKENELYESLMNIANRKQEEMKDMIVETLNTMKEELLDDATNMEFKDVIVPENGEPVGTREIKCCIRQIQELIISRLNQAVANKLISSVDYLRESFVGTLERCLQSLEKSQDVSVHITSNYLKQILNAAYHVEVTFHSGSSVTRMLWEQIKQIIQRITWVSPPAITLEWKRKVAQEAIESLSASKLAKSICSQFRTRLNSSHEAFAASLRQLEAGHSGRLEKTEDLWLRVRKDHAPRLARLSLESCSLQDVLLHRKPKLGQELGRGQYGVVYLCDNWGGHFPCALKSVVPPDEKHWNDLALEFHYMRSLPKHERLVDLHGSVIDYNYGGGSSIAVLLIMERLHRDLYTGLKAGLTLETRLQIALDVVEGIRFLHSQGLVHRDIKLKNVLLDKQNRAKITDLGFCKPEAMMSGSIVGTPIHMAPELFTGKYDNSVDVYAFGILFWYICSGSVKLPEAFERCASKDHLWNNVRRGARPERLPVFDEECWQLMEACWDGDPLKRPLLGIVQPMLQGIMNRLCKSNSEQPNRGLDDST
Chain of LIMK1 (human) (P53667 whole entry, looked up): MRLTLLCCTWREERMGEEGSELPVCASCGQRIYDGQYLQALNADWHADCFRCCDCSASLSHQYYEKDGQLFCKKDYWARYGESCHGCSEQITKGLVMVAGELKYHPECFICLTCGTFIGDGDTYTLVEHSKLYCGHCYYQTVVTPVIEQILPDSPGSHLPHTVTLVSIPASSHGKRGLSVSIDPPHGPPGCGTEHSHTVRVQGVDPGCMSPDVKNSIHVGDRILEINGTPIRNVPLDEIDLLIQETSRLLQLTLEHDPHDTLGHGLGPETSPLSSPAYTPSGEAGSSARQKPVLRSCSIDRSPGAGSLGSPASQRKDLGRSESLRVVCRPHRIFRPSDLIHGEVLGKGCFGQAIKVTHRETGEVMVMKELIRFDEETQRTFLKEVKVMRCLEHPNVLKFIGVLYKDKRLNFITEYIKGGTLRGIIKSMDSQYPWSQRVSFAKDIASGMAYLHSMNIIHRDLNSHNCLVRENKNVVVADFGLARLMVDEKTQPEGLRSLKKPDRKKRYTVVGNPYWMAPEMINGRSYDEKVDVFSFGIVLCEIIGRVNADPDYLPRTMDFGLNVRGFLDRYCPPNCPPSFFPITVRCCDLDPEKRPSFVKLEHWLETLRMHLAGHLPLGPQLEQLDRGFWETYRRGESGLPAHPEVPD
Chain of STK11 (human) (Q15831 whole entry, looked up): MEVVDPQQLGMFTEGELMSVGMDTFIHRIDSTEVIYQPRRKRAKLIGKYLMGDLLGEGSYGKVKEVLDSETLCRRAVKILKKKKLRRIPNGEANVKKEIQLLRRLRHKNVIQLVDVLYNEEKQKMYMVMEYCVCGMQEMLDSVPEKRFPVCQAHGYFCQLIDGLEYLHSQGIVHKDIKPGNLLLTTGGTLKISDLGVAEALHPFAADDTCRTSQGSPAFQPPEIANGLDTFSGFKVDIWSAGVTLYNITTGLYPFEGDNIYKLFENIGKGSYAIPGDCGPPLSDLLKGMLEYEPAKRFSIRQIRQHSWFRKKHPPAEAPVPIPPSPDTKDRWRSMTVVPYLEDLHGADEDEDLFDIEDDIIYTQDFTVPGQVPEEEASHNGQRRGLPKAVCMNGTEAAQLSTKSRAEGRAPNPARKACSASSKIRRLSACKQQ
Chain of FLT3 (human) (P36888 whole entry, looked up): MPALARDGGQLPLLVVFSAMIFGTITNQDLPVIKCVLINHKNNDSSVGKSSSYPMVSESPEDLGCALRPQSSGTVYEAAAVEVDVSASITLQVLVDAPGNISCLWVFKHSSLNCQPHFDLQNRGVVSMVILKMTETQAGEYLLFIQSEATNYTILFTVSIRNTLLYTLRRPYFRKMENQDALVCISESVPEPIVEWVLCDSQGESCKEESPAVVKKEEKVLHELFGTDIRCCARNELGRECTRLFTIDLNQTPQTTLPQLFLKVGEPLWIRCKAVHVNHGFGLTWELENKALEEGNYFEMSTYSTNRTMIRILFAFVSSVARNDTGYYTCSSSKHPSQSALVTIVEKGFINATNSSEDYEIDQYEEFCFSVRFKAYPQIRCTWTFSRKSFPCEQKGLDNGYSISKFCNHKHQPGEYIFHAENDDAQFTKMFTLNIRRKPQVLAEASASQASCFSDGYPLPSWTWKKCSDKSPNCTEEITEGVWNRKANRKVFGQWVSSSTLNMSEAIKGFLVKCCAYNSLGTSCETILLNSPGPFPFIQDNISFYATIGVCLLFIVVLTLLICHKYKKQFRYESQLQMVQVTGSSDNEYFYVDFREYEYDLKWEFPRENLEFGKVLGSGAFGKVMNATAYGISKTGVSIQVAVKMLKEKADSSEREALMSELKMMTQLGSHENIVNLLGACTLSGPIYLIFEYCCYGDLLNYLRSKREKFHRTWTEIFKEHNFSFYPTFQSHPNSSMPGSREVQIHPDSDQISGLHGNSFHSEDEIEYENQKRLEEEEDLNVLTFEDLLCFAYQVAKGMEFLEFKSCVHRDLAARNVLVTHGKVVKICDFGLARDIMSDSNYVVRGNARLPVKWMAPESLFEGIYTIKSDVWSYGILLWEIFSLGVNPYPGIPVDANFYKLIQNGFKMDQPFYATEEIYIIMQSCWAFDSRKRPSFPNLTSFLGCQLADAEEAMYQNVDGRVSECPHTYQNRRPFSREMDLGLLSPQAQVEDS
Chain of BLK (human) (P51451 whole entry, looked up): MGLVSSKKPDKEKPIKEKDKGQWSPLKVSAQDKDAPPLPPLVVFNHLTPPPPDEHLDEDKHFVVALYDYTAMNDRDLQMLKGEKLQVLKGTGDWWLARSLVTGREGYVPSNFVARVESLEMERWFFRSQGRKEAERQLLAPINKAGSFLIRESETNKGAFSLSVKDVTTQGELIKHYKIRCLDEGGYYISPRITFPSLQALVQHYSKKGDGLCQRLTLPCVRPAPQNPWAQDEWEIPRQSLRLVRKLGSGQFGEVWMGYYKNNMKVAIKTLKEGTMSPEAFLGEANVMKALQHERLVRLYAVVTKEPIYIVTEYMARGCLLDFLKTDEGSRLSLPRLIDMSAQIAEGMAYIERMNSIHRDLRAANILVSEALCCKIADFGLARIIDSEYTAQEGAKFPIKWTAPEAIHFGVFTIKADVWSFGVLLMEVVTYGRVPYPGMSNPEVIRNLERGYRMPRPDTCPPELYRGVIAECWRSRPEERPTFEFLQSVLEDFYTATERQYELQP

SMILES: COc1cc2ncnc(N3CCN(C(=O)Nc4ccc(Oc5ccccc5)cc4)CC3)c2cc1OC
- residual activity (PRKCE (human)): 106%
- residual activity (CAMKK1 (human)): 92.9%
- residual activity (DAPK2 (human)): 95%
- residual activity (DSTYK (human)): 113%
- residual activity (PRKD2 (human)): 91.9%
- residual activity (DDR2 (human)): 95.1%
- residual activity (HIPK1 (human)): 96.9%
- residual activity (CDK5 CDK5R1 p25 (human)): 77.1%
- residual activity (ITK (human)): 88.1%
- residual activity (NTRK1 (human)): 90.6%
- residual activity (FGFR1 (human)): 89.6%
- residual activity (PAK3 (human)): 98.1%
- residual activity (FES (human)): 98.3%
- residual activity (CDK2 CCNA2 (human)): 93.1%
- residual activity (LIMK1 (human)): 69.8%
- residual activity (JAK2 JH1 JH2 (human)): 99.3%
- residual activity (CAMK2B (human)): 96.3%
- residual activity (STK11 (human)): 105%
- residual activity (PHKG2 (human)): 128%
- residual activity (RPS6KA5 KD2 (human)): 96.4%
- residual activity (FLT3 (human)): 43.2%
- residual activity (PAK4 (human)): 101%
- residual activity (AKT1 (human)): 93.7%
- residual activity (BLK (human)): 113%
- residual activity [1]: 83.1%
- residual activity (PDPK1 (human)): 92.3%
- residual activity (GRK7 (human)): 95.7%
- residual activity (MAPKAPK5 (human)): 118%
- residual activity (TEC (human)): 101%
- residual activity (MAP2K1 (human)): 91.2%
- residual activity (TXK (human)): 99.3%
- residual activity (MAPK3 (human)): 102%
- residual activity (PTK2 (human)): 89.4%
- residual activity (CSNK1G3 (human)): 82.7%
- residual activity (SLK (human)): 97.9%
- residual activity (PIM3 (human)): 94.4%
- residual activity (PDGFRA (human)): 16.4%
- residual activity (RPS6KA4 KD2 (human)): 96.2%
- residual activity (MAPKAPK2 (human)): 102%
- residual activity (MELK (human)): 94.9%
- residual activity (JAK3 JH1 JH2 (human)): 107%

SMILES: CCn1cnc2c(Nc3cccc(Cl)c3)nc(N[C@@H]3CCCC[C@@H]3N)nc21
- residual activity (PRKCE (human)): 90.6%
- residual activity (CAMKK1 (human)): 107%
- residual activity (DAPK2 (human)): 99%
- residual activity (DSTYK (human)): 97.8%
- residual activity (DDR2 (human)): 97.2%
- residual activity (HIPK1 (human)): 97.5%
- residual activity (CDK5 CDK5R1 p25 (human)): 5.16%
- residual activity (ITK (human)): 105%
- residual activity (NTRK1 (human)): 92.9%
- residual activity (FGFR1 (human)): 85.7%
- residual activity (PAK3 (human)): 91.9%
- residual activity (PDGFRB (human)): 99.6%
- residual activity (FES (human)): 83.5%
- residual activity (CDK2 CCNA2 (human)): 23.6%
- residual activity (LIMK1 (human)): 108%
- residual activity (JAK2 JH1 JH2 (human)): 104%
- residual activity (CAMK2B (human)): 110%
- residual activity (STK11 (human)): 78%
- residual activity (PHKG2 (human)): 85.6%
- residual activity (RPS6KA5 KD2 (human)): 87.8%
- residual activity (FLT3 (human)): 12.7%
- residual activity (PAK4 (human)): 84.5%
- residual activity (AKT1 (human)): 108%
- residual activity (BLK (human)): 87.1%
- residual activity [1]: 110%
- residual activity (PDPK1 (human)): 94.8%
- residual activity (GRK7 (human)): 97.9%
- residual activity (MAPKAPK5 (human)): 98.3%
- residual activity (TEC (human)): 123%
- residual activity (MAP2K1 (human)): 92.2%
- residual activity (TXK (human)): 69.1%
- residual activity (MAPK3 (human)): 108%
- residual activity (PTK2 (human)): 83.1%
- residual activity (CSNK1G3 (human)): 45.9%
- residual activity (SLK (human)): 71.4%
- residual activity (PIM3 (human)): 34.7%
- residual activity (PDGFRA (human)): 100%
- residual activity (RPS6KA4 KD2 (human)): 88.2%
- residual activity (MAPKAPK2 (human)): 94.9%
- residual activity (MELK (human)): 77%
- residual activity (JAK3 JH1 JH2 (human)): 99.6%

SMILES: CN([C@@H](Cc1ccc(OS(=O)(=O)c2cccc3cnccc23)cc1)C(=O)N1CCN(c2ccccc2)CC1)S(=O)(=O)c1cccc2cnccc12
- residual activity (PRKCE (human)): 99.5%
- residual activity (CAMKK1 (human)): 108%
- residual activity (DAPK2 (human)): 99.7%
- residual activity (DSTYK (human)): 97.4%
- residual activity (PRKD2 (human)): 100%
- residual activity (DDR2 (human)): 96.9%
- residual activity (HIPK1 (human)): 110%
- residual activity (CDK5 CDK5R1 p25 (human)): 93.5%
- residual activity (ITK (human)): 99.4%
- residual activity (NTRK1 (human)): 111%
- residual activity (FGFR1 (human)): 103%
- residual activity (PAK3 (human)): 102%
- residual activity (PDGFRB (human)): 104%
- residual activity (FES (human)): 97.7%
- residual activity (CDK2 CCNA2 (human)): 99.8%
- residual activity (LIMK1 (human)): 104%
- residual activity (JAK2 JH1 JH2 (human)): 96.6%
- residual activity (CAMK2B (human)): 97.8%
- residual activity (STK11 (human)): 99%
- residual activity (PHKG2 (human)): 101%
- residual activity (RPS6KA5 KD2 (human)): 100%
- residual activity (FLT3 (human)): 103%
- residual activity (PAK4 (human)): 94.6%
- residual activity (AKT1 (human)): 102%
- residual activity (BLK (human)): 102%
- residual activity [1]: 110%
- residual activity (PDPK1 (human)): 96.4%
- residual activity (GRK7 (human)): 105%
- residual activity (MAPKAPK5 (human)): 97%
- residual activity (TEC (human)): 98.9%
- residual activity (MAP2K1 (human)): 75.3%
- residual activity (TXK (human)): 94.3%
- residual activity (MAPK3 (human)): 90.6%
- residual activity (PTK2 (human)): 104%
- residual activity (CSNK1G3 (human)): 104%
- residual activity (SLK (human)): 101%
- residual activity (PIM3 (human)): 113%
- residual activity (PDGFRA (human)): 99.6%
- residual activity (RPS6KA4 KD2 (human)): 98.7%
- residual activity (MAPKAPK2 (human)): 103%
- residual activity (JAK3 JH1 JH2 (human)): 98%

SMILES: Nc1nnc2[nH]c3ccccc3nc1-2
- residual activity (PRKCE (human)): 86.4%
- residual activity (CAMKK1 (human)): 112%
- residual activity (DAPK2 (human)): 91%
- residual activity (DSTYK (human)): 96%
- residual activity (PRKD2 (human)): 94.5%
- residual activity (DDR2 (human)): 94.6%
- residual activity (CDK5 CDK5R1 p25 (human)): 85.4%
- residual activity (ITK (human)): 101%
- residual activity (NTRK1 (human)): 88.3%
- residual activity (FGFR1 (human)): 93.9%
- residual activity (PAK3 (human)): 98.3%
- residual activity (PDGFRB (human)): 98.1%
- residual activity (FES (human)): 96.8%
- residual activity (CDK2 CCNA2 (human)): 86.2%
- residual activity (LIMK1 (human)): 105%
- residual activity (JAK2 JH1 JH2 (human)): 105%
- residual activity (CAMK2B (human)): 90%
- residual activity (STK11 (human)): 85.7%
- residual activity (PHKG2 (human)): 96.6%
- residual activity (RPS6KA5 KD2 (human)): 92.4%
- residual activity (FLT3 (human)): 75.9%
- residual activity (PAK4 (human)): 104%
- residual activity (AKT1 (human)): 106%
- residual activity (BLK (human)): 96.6%
- residual activity [1]: 107%
- residual activity (PDPK1 (human)): 96.8%
- residual activity (MAPKAPK5 (human)): 82.7%
- residual activity (TEC (human)): 108%
- residual activity (MAP2K1 (human)): 98.8%
- residual activity (TXK (human)): 97.6%
- residual activity (MAPK3 (human)): 113%
- residual activity (PTK2 (human)): 94.6%
- residual activity (CSNK1G3 (human)): 95.6%
- residual activity (SLK (human)): 92.5%
- residual activity (PIM3 (human)): 94%
- residual activity (PDGFRA (human)): 103%
- residual activity (RPS6KA4 KD2 (human)): 79%
- residual activity (MAPKAPK2 (human)): 105%
- residual activity (MELK (human)): 92.9%
- residual activity (JAK3 JH1 JH2 (human)): 68%
